Results as given in patent publication US20240307426A1, “USE OF SGLT-2 INHIBITORS FOR THE PREVENTION AND/OR TREATMENT OF RENAL DISEASES IN NON-HUMAN MAMMALS” (BOEHRINGER INGELHEIM VETMEDICA GMBH, priority 2021, published 2024).

Key:
[1] = system: client owned cats with CKD (IRIS stage 3); assay: Exploratory clinical field study - cats (Example 1); assay type: in vivo, cat; conditions: CKD IRIS stage 3, 0.1 mg/kg bodyweight orally once daily
Experimental: (§1) Client owned patients diagnosed with CKD (IRIS stage 3) diagnosed via physical examination and biomarker levels are orally treated once daily with velagliflozin 0.1 mg/kg bodyweight. During the study period the body weight, body condition score, biomarker levels (creatinine and SDMA), presence of concomitant conditions and need for further medication are examined on regular basis during the visits at the site by the investigator. The parameters examined are creatinine and SDMA levels, proteinuria, blood pressure, quality of life, and hydration status. Additionally, variables as the delayed onset of renal failure, survival time of the cat patients, IRiS stage progression and renal related mortality and/or morbidity are observed.

[2] = system: client owned dogs with CKD (IRIS stage 3); assay: Exploratory clinical field study - dogs (Example 2); assay type: in vivo, dog; conditions: CKD IRIS stage 3, 0.3 mg/kg bodyweight orally once daily
Experimental: as §1, with “velagliflozin 0.3” for “velagliflozin 0.1”, “SDMA), proteinuria,” for “SDMA),”, “blood pressure” for “blood pressure, quality of life,”, “the dog” for “the cat”

[3] = system: client owned dogs with CKD; assay: Exploratory clinical field trial in client owned dogs with CKD (Example 4); assay type: in vivo, dog; conditions: 0.05 mg/kg bodyweight orally once daily
Experimental: as §1, with “CKD” for “CKD (IRIS stage 3)”, “velagliflozin 0.05” for “velagliflozin 0.1”, “SDMA), proteinuria,” for “SDMA),”, “blood pressure” for “blood pressure, quality of life,”, “the dog” for “the cat”, “patients, IRIS” for “patients, IRiS”

In the case of `N#Cc1ccc([C@@H]2O[C@H](CO)[C@@H](O)[C@H](O)[C@H]2O)cc1Cc1ccc(C2CC2)cc1` [velagliflozin, Velagliflozin], the “effect on renal function” value [1] is reported as “beneficial effect on renal function”, the “progression of the disease” value [1] is reported as “delay in progression of the disease” and the “effect on renal function” value [2] is reported as “beneficial effect on renal function”. The “progression of the disease” value [2] was “delay in progression of the disease”, the “effect on renal function” value [3] was “beneficial effect on renal function” and the “progression of the disease” value [3] was “delay in progression of the disease”.
